Data reported in ChEMBL document CHEMBL4613250, “Discovery of 4-((2S,4S)-4-Ethoxy-1-((5-methoxy-7-methyl-1H-indol-4-yl)methyl)piperidin-2-yl)benzoic Acid (LNP023), a Factor B Inhibitor Specifically Designed To Be Applicable to Treating a Diverse Array of Complement Mediated Diseases” (J Med Chem, 2020).

Key:
Canis familiaris [1] = species on record: Canis familiaris; test: animal or person; settings: Canis lupus familiaris, beagle, po, 6 h, read-out: INH
[2] = AUC/dose in Wistar Han rat at 1 mg/kg, iv after 0.5 to 24 hrs by HPLC-MS/MS analysis; type: ADME, organism-based; settings: in vivo
[3] = Half life in beagle dog at 0.1 mg/kg, iv after 15 mins to 24 hrs by HPLC-MS/MS analysis; type: ADME, organism-based, Canis lupus familiaris; settings: in vivo
[4] = Mean residence time in beagle dog at 0.1 mg/kg, iv after 15 mins to 24 hrs by HPLC-MS/MS analysis; type: ADME, organism-based, Canis lupus familiaris; settings: in vivo
[5] = Half life in Wistar Han rat at 1 mg/kg, iv after 0.5 to 24 hrs by HPLC-MS/MS analysis; type: ADME, organism-based; settings: in vivo
[6] = AUC/dose in beagle dog at 10 mg/kg, po after 15 mins to 24 hrs by HPLC-MS/MS analysis; type: ADME, organism-based, Canis lupus familiaris; settings: in vivo
[7] = Tmax in beagle dog at 10 mg/kg, po after 15 mins to 24 hrs by HPLC-MS/MS analysis; type: ADME, organism-based, Canis lupus familiaris; settings: in vivo
[8] = Tmax in Wistar Han rat at 30 mg/kg, po after 0.5 to 24 hrs by HPLC-MS/MS analysis; type: ADME, organism-based; settings: in vivo
[9] = Volume of distribution at steady state in Wistar Han rat at 1 mg/kg, iv after 0.5 to 24 hrs by HPLC-MS/MS analysis; type: ADME, organism-based; settings: in vivo, read-out: Vdss
[10] = Cmax/dose in Wistar Han rat at 30 mg/kg, po after 0.5 to 24 hrs by HPLC-MS/MS analysis; type: ADME, organism-based; settings: in vivo
[11] = Volume of distribution at steady state in beagle dog at 0.1 mg/kg, iv after 15 mins to 24 hrs by HPLC-MS/MS analysis; type: ADME, organism-based, Canis lupus familiaris; settings: in vivo, read-out: Vdss
[12] = Oral bioavailability in beagle dog at 10 mg/kg after 15 mins to 24 hrs by HPLC-MS/MS analysis; type: ADME, organism-based, Canis lupus familiaris; settings: in vivo
[13] = Oral bioavailability in Wistar Han rat at 30 mg/kg after 0.5 to 24 hrs by HPLC-MS/MS analysis; type: ADME, organism-based; settings: in vivo
Canis familiaris [14] = species on record: Canis familiaris; test: animal or person; settings: Canis lupus familiaris, beagle, po, 12 h, read-out: INH
[15] = Clearance in Wistar Han rat at 1 mg/kg, iv after 0.5 to 24 hrs by HPLC-MS/MS analysis; type: ADME, organism-based; settings: in vivo
[16] = Mean residence time in Wistar Han rat at 1 mg/kg, iv after 0.5 to 24 hrs by HPLC-MS/MS analysis; type: ADME, organism-based; settings: in vivo
[17] = Cmax/dose in beagle dog at 10 mg/kg, po after 15 mins to 24 hrs by HPLC-MS/MS analysis; type: ADME, organism-based, Canis lupus familiaris; settings: in vivo
[18] = Clearance in beagle dog at 0.1 mg/kg, iv after 15 mins to 24 hrs by HPLC-MS/MS analysis; type: ADME, organism-based, Canis lupus familiaris; settings: in vivo
[19] = AUC/dose in Wistar Han rat at 30 mg/kg, po after 0.5 to 24 hrs by HPLC-MS/MS analysis; type: ADME, organism-based; settings: in vivo
[20] = AUC/dose in beagle dog at 0.1 mg/kg, iv after 15 mins to 24 hrs by HPLC-MS/MS analysis; type: ADME, organism-based, Canis lupus familiaris; settings: in vivo

## CCO[C@H]1CCN(Cc2c(OC)cc(C)c3[nH]ccc23)[C@H](c2ccc(C(=O)O)cc2)C1.Cl
Canis familiaris [1]
  inhibition in vivo at 3 mg/kg: 100%
[2]
  AUC/dose: 5200 nM·h
[3]
  half-life: 5.6 h
[4]
  MRT: 5.5 h
[5]
  half-life: 7 h
[6]
  AUC/dose: 12700 nM·h
[7]
  Tmax: 0.8 h
[8]
  Tmax: 2 h
[9]
  Vd: 2.3 L/kg
[10]
  Cmax/dose: 410 nM
[11]
  Vd: 0.6 L/kg
[12]
  bioavailability: 60%
[13]
  bioavailability: 40%
Canis familiaris [14]
  inhibition in vivo at 3 mg/kg: 55%
[15]
  clearance: 8 mL/min/kg
[16]
  MRT: 3.4 h
[17]
  Cmax/dose: 2200 nM
[18]
  clearance: 2 mL/min/kg
[19]
  AUC/dose: 2100 nM·h
[20]
  AUC/dose: 21000 nM·h
